Measured values: article PMC4023695 (ACS medicinal chemistry letters, 2014)
Marks after values point to notes of the source that are not given here.

Columns and labels:
[1] = cited from earlier work
C57Bl6 mice = test: Mouse tail-flick assay; assay type: in vivo; details: intravenous, nonlinear regression of log dose–response curve
Caco-2 cell monolayers = test: Caco-2 cell monolayer translocation; assay type: in vitro ADME
[2] = Metabolic plasma stability assay; assay type: in vitro ADME; details: up to 20 h
MOR [3] = target: MOR (Rattus norvegicus, UniProt P33535); assay type: binding
MOR [4] = details: read-out: GPI IC50; DALDA literature characterisation, no reference given; cited from earlier work
[5] = cis-concentration 13 nM, absence of unlabelled compound, means ± SE, n = 3

Chain of MOR (Rattus norvegicus, UniProt P33535) (P33535 whole entry): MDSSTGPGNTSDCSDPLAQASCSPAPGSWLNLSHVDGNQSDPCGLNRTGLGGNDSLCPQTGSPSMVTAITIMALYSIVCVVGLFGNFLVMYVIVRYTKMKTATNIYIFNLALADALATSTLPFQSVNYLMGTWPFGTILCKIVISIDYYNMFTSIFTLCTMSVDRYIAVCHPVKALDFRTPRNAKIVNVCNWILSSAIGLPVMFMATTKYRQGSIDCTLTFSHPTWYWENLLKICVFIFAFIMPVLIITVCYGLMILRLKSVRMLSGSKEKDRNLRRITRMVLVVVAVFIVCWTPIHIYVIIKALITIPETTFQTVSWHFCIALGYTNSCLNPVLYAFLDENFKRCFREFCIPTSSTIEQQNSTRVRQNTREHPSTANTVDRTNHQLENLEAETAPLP

Molecule: OC[C@@H](O)[C@@H](O)[C@H](O)[C@H](O)CO [mannitol]
- oral bioavailability [1]: ~ 20%

Molecule: Cc1cc(O)cc(C)c1C[C@H](N)C(=O)N[C@H](CCCNC(=N)N)C(=O)N[C@@H](Cc1ccccc1)C(=O)N[C@@H](Cc1cn([C@@H]2O[C@H](CO)[C@H](O)[C@H](O)[C@H]2O)nn1)C(N)=O [compound 4]
- ED50 tail-flick test (C57Bl6 mice): 0.27* mg/kg
- A–B and B–A permeabilities compared to mannitol (Caco-2 cell monolayers; 21 day old Caco-2 monolayers, 13 nM): slightly higher than the permeability of the passive flux marker mannitol
- Flux A–B (lumen–blood) (Caco-2 cell monolayers; [5]): 2.59 ± 0.15 nmol·cm^−2·min^−1 × 10^−7
- Flux B–A (blood–lumen) (Caco-2 cell monolayers; [5]): 2.96 ± 0.13 nmol·cm^−2·min^−1 × 10^−7
- degradation in human plasma [2]: no degradation products could be observed

Molecule: Cc1cc(O)cc(C)c1C[C@H](N)C(=O)N[C@H](CCCNC(=N)N)C(=O)N[C@@H](Cc1ccccc1)C(=O)N[C@@H](Cc1cn([C@@H]2O[C@H](CO)[C@@H](O)[C@H](O)[C@H]2O)nn1)C(N)=O [compound 5]
- degradation in human plasma [2]: no degradation products could be observed

Molecule: N=C(N)NCCC[C@@H](NC(=O)[C@@H](N)Cc1ccc(OCc2cn([C@@H]3O[C@H](CO)[C@H](O)[C@H](O)[C@H]3O)nn2)cc1)C(=O)N[C@@H](Cc1ccccc1)C(=O)N[C@@H](CCCCN)C(N)=O [compound 3]
- loss in binding (MOR) relative to DALDA (MOR [3]; compound 3 vs DALDA): 22 fold
- Ki ratio μ/δ (MOR [3]; μ/δ receptor binding selectivity ratio): >130

Molecule: Tyr-D-Arg-Phe-Lys-NH2 [DALDA]
- IC50 (MOR [4]): 0.254 µM
